{
  "source": "patent US8975263B2",
  "about": "“Phenylxanthene derivatives” (Daiichi Sankyo Company, Limited, priority 2013, dated 2015)",
  "data": [
    {"test_system": "C57BL/6J mice", "assay": "Oral glucose tolerance test", "format": "in vivo", "details": "male C57BL/6J mice, fasted overnight; oral gavage 10 mg/kg; solvent 0.5% MC; glucose 3 g/kg orally 30 minutes after compound; area under the curve of blood glucose level relative to control group", "description": "(§1) Commercially available mice (C57BL/6J mice; male; 8 to 12 weeks old when used; distributed by Charles River Laboratories Japan, Inc.) were used.\n(§2) After acclimatization with freely feeding (FR-2, Funabashi Farm Co., Ltd.) for one week or more, the mice were fasted overnight and then used for the test. A 0.5% methylcellulose (Wako Pure Chemical Industries, Ltd.) solution (0.5% MC) containing a test compound at a concentration of 1 mg/ml and a mixed solution (PG:Tween) of propylene glycol (80 v/v %, Nacalai Tesque, Inc.) and Tween 80 (20 v/v %, Nacalai Tesque, Inc.) containing a test compound at a concentration of 2 mg/ml were prepared for administration to the mice. The prepared solution was administered by oral gavage to four or five mice in each group at a dose of 10 mg/kg as the test compound. For a control group, a 0.5% methylcellulose solution (dose: 10 ml/kg) or a mixed solution of propylene glycol and Tween 80 (dose: 5 ml/kg) was orally administered to mice. An oral glucose tolerance test was carried out by administering a glucose solution (Otsuka Glucose Solution 50%; Otsuka Pharmaceutical Factory, Inc.) orally at a dose of 3 g/kg to the mice 30 minutes after administration of the test compound.\n(§3) Blood was collected from the tail vein of each mouse immediately before administration of the test compound (T0), […] after administration of the test compound (T1), and 30 minutes (T2) and 90 minutes (T3) after oral glucose loading. The blood glucose level was measured using a blood glucose level measuring apparatus (ACCU-CHEK Aviva; Roche Diagnostics, K.K.). The blood glucose level T1 was analyzed as a value obtained 30 minutes after administration of the compound and immediately before glucose loading. According to the following formula, the area under the curve of blood glucose level was calculated, and thereafter, the blood glucose lowering rate (%) was calculated as a value relative to the control group. The area under the curve of blood glucose level=[(blood glucose level T0+blood glucose level T1)×30]÷2+[(blood glucose level T1+blood glucose level T2)×30]÷2+[(blood glucose level T2+blood glucose level T3)×60]÷2 Blood glucose lowering rate(%)=[1−(the area under the curve of blood glucose level for the test compound group/the area under the curve of blood glucose level for the control group)]×100", "units": {"Blood glucose lowering rate (%)": "%"}, "values": [
      {"smiles": "C#Cc1ccc(-c2ccc(OC)c(C3C4=C(CC(C)(C)CC4=O)OC4=C3C(=O)CC(C)(C)C4)c2C)nc1C(=O)O", "note": "[Example 12, 3-Ethynyl-6-[4-methoxy-2-methyl-3-(3,3,6,6-tetramethyl-1,8-dioxo-2,3,4,5,6,7,8,9-octahydro-1H-xanthen-9-yl)phenyl]pyridine-2-carboxylic acid]", "Blood glucose lowering rate (%)": 31},
      {"smiles": "CCc1ccc(-c2ccc(OC)c(C3C4=C(CC(C)(C)CC4=O)OC4=C3C(=O)CC(C)(C)C4)c2C)nc1C(=O)O", "note": "[Example 13, 3-Ethyl-6-[4-methoxy-2-methyl-3-(3,3,6,6-tetramethyl-1,8-dioxo-2,3,4,5,6,7,8,9-octahydro-1H-xanthen-9-yl)phenyl]pyridine-2-carboxylic acid]", "Blood glucose lowering rate (%)": 61},
      {"smiles": "COc1ccc(-c2cccc(C(=O)NS(C)(=O)=O)n2)c(C)c1C1C2=C(CC(C)(C)CC2=O)OC2=C1C(=O)CC(C)(C)C2.[K]", "note": "[Example 14, 6-[4-Methoxy-2-methyl-3-(3,3,6,6-tetramethyl-1,8-dioxo-2,3,4,5,6,7,8,9-octahydro-1H-xanthen-9-yl)phenyl]-N-(methylsulfonyl)pyridine-2-carboxamide potassium salt]", "Blood glucose lowering rate (%)": 46},
      {"smiles": "COc1ccc(-c2ccc(C)c(C(=O)NS(C)(=O)=O)n2)c(C)c1C1C2=C(CC(C)(C)CC2=O)OC2=C1C(=O)CC(C)(C)C2", "note": "[Example 16, 6-[4-Methoxy-2-methyl-3-(3,3,6,6-tetramethyl-1,8-dioxo-2,3,4,5,6,7,8,9-octahydro-1H-xanthen-9-yl)phenyl]-3-methyl-N-(methylsulfonyl)pyridine-2-carboxamide]", "Blood glucose lowering rate (%)": 45},
      {"smiles": "CCc1ccc(-c2ccc(OC)c(C3C4=C(CC(C)(C)CC4=O)OC4=C3C(=O)CC(C)(C)C4)c2C)nc1C(=O)NS(C)(=O)=O", "note": "[Example 17, 3-Ethyl-6-[4-methoxy-2-methyl-3-(3,3,6,6-tetramethyl-1,8-dioxo-2,3,4,5,6,7,8,9-octahydro-1H-xanthen-9-yl)phenyl]-N-(methylsulfonyl)pyridine-2-carboxamide]", "Blood glucose lowering rate (%)": 43},
      {"smiles": "CC(C)(C)N.COc1ccc(-c2cccc(C(=O)NS(C)(=O)=O)n2)c(C)c1C1C2=C(CC(C)(C)CC2=O)OC2=C1C(=O)CC(C)(C)C2", "note": "[Example 18, 6-[4-methoxy-2-methyl-3-(3,3,6,6-tetramethyl-1,8-dioxo-2,3,4,5,6,7,8,9-octahydro-1H-xanthen-9-yl)phenyl]-N-(methylsulfonyl)pyridine-2-carboxamide 2-methylpropan-2-amine salt]", "Blood glucose lowering rate (%)": 31},
      {"smiles": "COc1ccc(-c2ccc(C)c(C(=O)NS(C)(=O)=O)n2)c(C)c1C1C2=C(CC(C)(C)CC2=O)OC2=C1C(=O)CC(C)(C)C2.[Na]", "note": "[Example 19, 6-[4-Methoxy-2-methyl-3-(3,3,6,6-tetramethyl-1,8-dioxo-2,3,4,5,6,7,8,9-octahydro-1H-xanthen-9-yl)phenyl]-3-methyl-N-(methylsulfonyl)pyridine-2-carboxamide sodium salt]", "Blood glucose lowering rate (%)": 40},
      {"smiles": "COc1ccc(-c2cccc(C(=O)NS(C)(=O)=O)n2)c(C)c1C1C2=C(CC(C)(C)CC2=O)OC2=C1C(=O)CC(C)(C)C2.COc1ccc(-c2cccc(C(=O)NS(C)(=O)=O)n2)c(C)c1C1C2=C(CC(C)(C)CC2=O)OC2=C1C(=O)CC(C)(C)C2.[Ca]", "note": "[Example 20, 6-[4-Methoxy-2-methyl-3-(3,3,6,6-tetramethyl-1,8-dioxo-2,3,4,5,6,7,8,9-octahydro-1H-xanthen-9-yl)phenyl]-N-(methylsulfonyl)pyridine-2-carboxamide hemi-calcium salt]", "Blood glucose lowering rate (%)": 41},
      {"smiles": "COc1ccc(-c2ccc(C)c(C(=O)NS(C)(=O)=O)n2)c(C)c1C1C2=C(CC(C)(C)CC2=O)OC2=C1C(=O)CC(C)(C)C2.COc1ccc(-c2ccc(C)c(C(=O)NS(C)(=O)=O)n2)c(C)c1C1C2=C(CC(C)(C)CC2=O)OC2=C1C(=O)CC(C)(C)C2.[Ca]", "note": "[Example 21, 6-[4-Methoxy-2-methyl-3-(3,3,6,6-tetramethyl-1,8-dioxo-2,3,4,5,6,7,8,9-octahydro-1H-xanthen-9-yl)phenyl]-3-methyl-N-(methylsulfonyl)pyridine-2-carboxamide hemi-calcium salt]", "Blood glucose lowering rate (%)": 54}
    ]},
    {"test_system": "C57BL/6J mice", "assay": "Oral glucose tolerance test", "format": "in vivo", "details": "male C57BL/6J mice, fasted overnight; oral gavage 10 mg/kg; solvent PG:Tween; glucose 3 g/kg orally 30 minutes after compound; area under the curve of blood glucose level relative to control group", "description": "as §1, §2, §3", "units": {"Blood glucose lowering rate (%)": "%"}, "values": [
      {"smiles": "COc1ccc(-c2cccc(C(=O)O)n2)cc1C1C2=C(CC(C)(C)CC2=O)OC2=C1C(=O)CC(C)(C)C2", "note": "[Example 1, 6-[4-Methoxy-3-(3,3,6,6-tetramethyl-1,8-dioxo-2,3,4,5,6,7,8,9-octahydro-1H-xanthen-9-yl)phenyl]pyridine-2-carboxylic acid]", "Blood glucose lowering rate (%)": 39},
      {"smiles": "COc1ccc(-c2cccc(C(=O)O)n2)c(C)c1C1C2=C(CC(C)(C)CC2=O)OC2=C1C(=O)CC(C)(C)C2", "note": "[Example 4, 6-[4-Methoxy-2-methyl-3-(3,3,6,6-tetramethyl-1,8-dioxo-2,3,4,5,6,7,8,9-octahydro-1H-xanthen-9-yl)phenyl]pyridine-2-carboxylic acid]", "Blood glucose lowering rate (%)": 60},
      {"smiles": "COc1ccc(-c2cccc(C(=O)NS(C)(=O)=O)n2)cc1C1C2=C(CC(C)(C)CC2=O)OC2=C1C(=O)CC(C)(C)C2", "note": "[Example 5, 6-[4-Methoxy-3-(3,3,6,6-tetramethyl-1,8-dioxo-2,3,4,5,6,7,8,9-octahydro-1H-xanthen-9-yl)phenyl]-N-(methylsulfonyl)pyridine-2-carboxamide]", "Blood glucose lowering rate (%)": 43},
      {"smiles": "COc1ccc(-c2cccc(-c3noc(=O)[nH]3)n2)cc1C1C2=C(CC(C)(C)CC2=O)OC2=C1C(=O)CC(C)(C)C2", "note": "[Example 8, 9-{2-Methoxy-5-[6-(5-oxo-4,5-dihydro-1,2,4-oxadiazol-3-yl)pyridin-2-yl]phenyl}-3,3,6,6-tetramethyl-3,4,5,6,7,9-hexahydro-1H-xanthene-1,8(2H)-dione]", "Blood glucose lowering rate (%)": 38},
      {"smiles": "COc1ccc(-c2cccc(C(=O)NS(C)(=O)=O)n2)c(C)c1C1C2=C(CC(C)(C)CC2=O)OC2=C1C(=O)CC(C)(C)C2", "note": "[Example 9, 6-[4-Methoxy-2-methyl-3-(3,3,6,6-tetramethyl-1,8-dioxo-2,3,4,5,6,7,8,9-octahydro-1H-xanthen-9-yl)phenyl]-N-(methylsulfonyl)pyridine-2-carboxamide]", "Blood glucose lowering rate (%)": 42},
      {"smiles": "COc1ccc(-c2ccc(C)c(C(=O)O)n2)c(C)c1C1C2=C(CC(C)(C)CC2=O)OC2=C1C(=O)CC(C)(C)C2", "note": "[Example 10, 6-[4-Methoxy-2-methyl-3-(3,3,6,6-tetramethyl-1,8-dioxo-2,3,4,5,6,7,8,9-octahydro-1H-xanthen-9-yl)phenyl]-3-methylpyridine-2-carboxylic acid]", "Blood glucose lowering rate (%)": 55},
      {"smiles": "COc1ccc(-c2ccc(O)c(C(=O)O)n2)c(C)c1C1C2=C(CC(C)(C)CC2=O)OC2=C1C(=O)CC(C)(C)C2", "note": "[Example 11, 3-Hydroxy-6-[4-methoxy-2-methyl-3-(3,3,6,6-tetramethyl-1,8-dioxo-2,3,4,5,6,7,8,9-octahydro-1H-xanthen-9-yl)phenyl]pyridine-2-carboxylic acid]", "Blood glucose lowering rate (%)": 42},
      {"smiles": "COc1ccc(-c2ccc(OC)c(C3C4=C(CC(C)(C)CC4=O)OC4=C3C(=O)CC(C)(C)C4)c2C)nc1C(=O)O", "note": "[Example 23, 3-Methoxy-6-[4-methoxy-2-methyl-3-(3,3,6,6-tetramethyl-1,8-dioxo-2,3,4,5,6,7,8,9-octahydro-1H-xanthen-9-yl)phenyl]pyridine-2-carboxylic acid]", "Blood glucose lowering rate (%)": 46}
    ]}
  ]
}
